Measurements: patent US20150148377A1, “Quinoline Derivatives” (NOVARTIS AG, priority 2011, published 2015)

Key:
[1] = biological target: T1, PI3K delta (Homo sapiens, UniProt O00329); experiment: Enzymatic PI3K delta isoform inhibition (lipid kinase activity, Kinase-Glo); format: biochemical; details: enzymatic assay
T1 construct: for the full-length p110-d subunit are generated and fused by overlapping PCR; His tag (C); made in house; host or cells: baculovirus; Tn5 (Trichoplusia ni) or TiniPro insect cells
Protocol: (§1) In a more preferred assay, the kinase reaction is performed in a final volume of 10 μl per well of a low volume non-binding CORNING, 384 well black plate (Cat. No. #3676). The final concentrations of ATP and phosphatidyl inositol (PI) in the assay are 1 μM and 10 μg/mL, respectively. The reaction is started by the addition of ATP.
(§2) The components of the assay are added per well as follows:
(§3) 50 nl test compounds in 90% DMSO per well, in columns 1-20, 8 concentrations (1/3 and 1/3.33 serial dilution step) in single. • Low control: 50 nl of 90% DMSO in half the wells of columns 23-24 (0.45% in final). • High control: 50 nl of reference compound (e.g. compound of Example 7 in WO 2006/122806) in the other half of columns 23-24 (2.5 μM in final). • Standard: 50 nl of reference compound as just mentioned diluted as the test compounds in columns 21-22. • 20 mL ‘buffer’ are prepared per assay: • 200 μl of 1M TRIS HCl pH7.5 (10 mM in final) • 60 μl of 1M MgCl2 (3 mM in final) • 500 μl of 2M NaCl (50 mM in final) • 100 μl of 10% CHAPS (0.05% in final) • 200 μl of 100 mM DTT (1 mM in final) • 18.94 mL of nanopure water • 10 mL ‘PI’ are prepared per assay: • 200 μl of 1 mg/mL 1-alpha-Phosphatidylinositol (Liver Bovine, Avanti Polar Lipids Cat. No. 840042C MW=909.12) prepared in 3% OctylGlucoside (10 μg/mL in final) • 9.8 mL of ‘buffer’ • 10 mL ‘ATP’ are prepared per assay: • 6.7 μl of 3 mM stock of ATP giving a final concentration of 1 μM per well • 10 mL of ‘buffer’ • 2.5 mL of each PI3K construct are prepared per assay in ‘PI’ with the following final concentration: • 10 nM PI3K alfa EMV B1075 • 25 nM beta EMV BV949 • 10 nM delta EMV BV1060 • 150 nM gamma EMV BV950 • 5 μl of ‘PI/PI3K’ are added per well. • 5 μl ‘ATP’ are added per well to start the reaction. • The plates are then incubated at room temperature for 60 minutes (alfa, beta, delta) or 120 minutes (gamma). • The reaction is terminated by the addition of 10 μl Kinase-Glo (Promega Cat. No. #6714). • The assay plates are read after 10 minutes in Synergy 2 reader (BioTek, Vermont USA) with an integration time of 100 milliseconds and sensitivity set to 191. • Output: The High control is around 60'000 counts and the Low control is 30'000 or lower • This luminescence assay gives a useful Z′ ratio between 0.4 and 0.7
(§4) IC50 is determined by a four parameter curve fitting routine that comes along with “excel fit”. A four parameter logistic equation is used to calculate IC50 values (IDBS XLfit) of the percentage inhibition of each compound at 8 concentrations (usually 10, 3.0, 1.0, 0.3, 0.1, 0.030, 0.010 and 0.003 μM). Alternatively, IC50 values are calculated using idbsXLfit model 204, which is a 4 parameter logistic model.
(§5) Yet alternatively, for an ATP depletion assay, compounds of the formula I to be tested are dissolved in DMSO and directly distributed into a white 384-well plate at 0.5 μl per well. To start the reaction, 10 μl of 10 nM PI3 kinase and 5 μg/mL 1-alpha-phosphatidylinositol (PI) are added into each well followed by 10 μl of 2 μM ATP. The reaction is performed until approx 50% of the ATP is depleted, and then stopped by the addition of 20 μl of Kinase-Glo solution (Promega Corp., Madison, Wis., USA). The stopped reaction is incubated for 5 minutes and the remaining ATP is then detected via luminescence. IC50 values are then determined.

[2] = biological target: T2, PI3K alpha (Homo sapiens, UniProt P42336); experiment: Enzymatic PI3K alpha isoform inhibition (lipid kinase activity, Kinase-Glo); format: biochemical; details: enzymatic assay
T2 construct: His tag (C); made in house; host or cells: baculovirus; Tn5 (Trichoplusia ni) or TiniPro insect cells
Protocol: The kinase reaction is performed in a final volume of 50 μl per well of a half area COSTAR, 96 well plate. The final concentrations of ATP and phosphatidyl inositol in the assay are 5 μM and 6 μg/mL, respectively. The reaction is started by the addition of PI3 kinase, e.g. PI3 kinase δ.
as §1, §2, §3, §4, §5

T1 sequence (O00329 with tags, fused parts or gaps limits assumed): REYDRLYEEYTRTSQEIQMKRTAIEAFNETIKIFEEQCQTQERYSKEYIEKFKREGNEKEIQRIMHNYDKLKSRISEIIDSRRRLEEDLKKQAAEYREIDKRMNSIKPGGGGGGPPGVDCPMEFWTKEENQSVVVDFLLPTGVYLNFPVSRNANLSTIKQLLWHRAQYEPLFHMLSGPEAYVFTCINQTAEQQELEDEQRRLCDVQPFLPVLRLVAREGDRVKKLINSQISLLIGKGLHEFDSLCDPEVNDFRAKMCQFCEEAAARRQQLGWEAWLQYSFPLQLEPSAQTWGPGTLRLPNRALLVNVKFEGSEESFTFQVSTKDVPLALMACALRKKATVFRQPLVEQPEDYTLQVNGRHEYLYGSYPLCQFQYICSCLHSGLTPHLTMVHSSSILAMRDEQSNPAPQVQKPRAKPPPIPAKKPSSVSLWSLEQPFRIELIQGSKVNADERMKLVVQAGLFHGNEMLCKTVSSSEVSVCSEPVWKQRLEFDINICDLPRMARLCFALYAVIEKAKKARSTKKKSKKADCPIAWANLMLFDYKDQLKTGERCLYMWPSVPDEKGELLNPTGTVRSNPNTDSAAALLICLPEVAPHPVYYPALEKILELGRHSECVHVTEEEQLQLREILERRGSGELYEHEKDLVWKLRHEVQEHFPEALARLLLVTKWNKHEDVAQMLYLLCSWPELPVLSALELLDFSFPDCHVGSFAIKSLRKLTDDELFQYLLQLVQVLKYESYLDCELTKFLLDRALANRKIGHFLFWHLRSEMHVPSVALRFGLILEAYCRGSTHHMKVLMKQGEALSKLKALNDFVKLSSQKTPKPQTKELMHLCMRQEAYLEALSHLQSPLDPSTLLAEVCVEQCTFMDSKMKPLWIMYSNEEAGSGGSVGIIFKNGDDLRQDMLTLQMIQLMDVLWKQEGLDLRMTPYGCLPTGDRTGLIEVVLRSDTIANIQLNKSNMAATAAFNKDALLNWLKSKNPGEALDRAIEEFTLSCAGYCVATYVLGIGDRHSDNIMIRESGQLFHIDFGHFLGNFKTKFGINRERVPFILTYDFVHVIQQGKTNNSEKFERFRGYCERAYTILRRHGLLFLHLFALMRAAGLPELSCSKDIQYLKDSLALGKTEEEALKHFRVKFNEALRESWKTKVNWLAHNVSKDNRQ
T2 sequence (P42336 with tags, fused parts or gaps limits assumed): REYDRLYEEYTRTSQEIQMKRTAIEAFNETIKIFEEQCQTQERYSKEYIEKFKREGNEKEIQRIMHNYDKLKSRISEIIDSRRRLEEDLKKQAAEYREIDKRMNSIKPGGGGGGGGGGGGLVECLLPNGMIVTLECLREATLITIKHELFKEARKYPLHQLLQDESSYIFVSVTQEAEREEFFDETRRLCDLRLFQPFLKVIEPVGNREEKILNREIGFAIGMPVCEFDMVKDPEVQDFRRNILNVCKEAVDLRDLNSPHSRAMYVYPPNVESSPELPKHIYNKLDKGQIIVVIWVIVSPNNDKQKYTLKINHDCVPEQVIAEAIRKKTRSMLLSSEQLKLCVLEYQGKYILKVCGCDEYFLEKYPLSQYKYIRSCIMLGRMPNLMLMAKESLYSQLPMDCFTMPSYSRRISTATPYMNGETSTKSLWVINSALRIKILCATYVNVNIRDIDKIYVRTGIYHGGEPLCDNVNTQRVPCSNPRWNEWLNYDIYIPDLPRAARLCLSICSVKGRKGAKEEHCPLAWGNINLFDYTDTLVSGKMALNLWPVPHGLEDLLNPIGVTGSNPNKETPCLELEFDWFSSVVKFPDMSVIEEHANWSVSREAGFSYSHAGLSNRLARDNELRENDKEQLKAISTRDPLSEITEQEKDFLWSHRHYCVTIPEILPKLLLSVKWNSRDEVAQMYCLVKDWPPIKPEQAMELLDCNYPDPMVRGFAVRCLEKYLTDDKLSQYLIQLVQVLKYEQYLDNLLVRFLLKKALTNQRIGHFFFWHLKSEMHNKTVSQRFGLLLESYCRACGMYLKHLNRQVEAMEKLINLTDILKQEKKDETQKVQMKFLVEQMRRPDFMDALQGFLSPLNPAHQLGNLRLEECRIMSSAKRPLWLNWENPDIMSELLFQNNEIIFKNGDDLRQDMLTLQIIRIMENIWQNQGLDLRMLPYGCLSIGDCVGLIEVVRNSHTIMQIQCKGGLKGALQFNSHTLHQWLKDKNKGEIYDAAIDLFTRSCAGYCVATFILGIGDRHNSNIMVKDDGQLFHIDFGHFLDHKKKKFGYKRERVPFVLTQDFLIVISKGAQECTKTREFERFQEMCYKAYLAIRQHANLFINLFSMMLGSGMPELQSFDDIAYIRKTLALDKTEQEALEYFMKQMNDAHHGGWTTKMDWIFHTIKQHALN

Row | SMILES | IC50 [1] [nM] | IC50 [2] [nM]
1 | COc1ncc(-c2ccnc3ccc(O[C@H]4CCN(C(=O)C5CCN(C(C)=O)CC5)C4)cc23)cc1C [Example A27, 1-(4-{(S)-3-[4-(6-Methoxy-5-methyl-pyridin-3-yl)-quinolin-6-yloxy]-pyrrolidine-1-carbonyl}-piperidin-1-yl)-ethanone] | 14 | 543
2 | CS(=O)(=O)c1ncc(-c2ccnc3ccc(O[C@H]4CCN(C(=O)C5CCOCC5)C4)cc23)cc1Cl [Example A28, {(S)-3-[4-(5-Chloro-6-methanesulfonyl-pyridin-3-yl)-quinolin-6-yloxy]-pyrrolidin-1-yl}-(tetrahydro-pyran-4-yl)-methanone] | 14 | 1390
3 | Nc1ncc(-c2ccnc3ccc(O[C@H]4CCN(C(=O)C5CCOCC5)C4)cc23)cc1C(F)(F)F [Example A29, {(S)-3-[4-(6-Amino-5-trifluoromethyl-pyridin-3-yl)-quinolin-6-yloxy]-pyrrolidin-1-yl}-(tetrahydro-pyran-4-yl)-methanone] | 17 | 30
4 | COc1ncc(-c2ccnc3ccc(O[C@H]4CCN(C(=O)c5cn(C)cn5)C4)cc23)cc1C#N [Example A30, 2-Methoxy-5-{6-[(S)-1-(1-methyl-1H-imidazole-4-carbonyl)-pyrrolidin-3-yloxy]-quinolin-4-yl}-nicotinonitrile] | 19.5 | 381
5 | Nc1ncc(-c2ccnc3ccc(O[C@H]4CCN(C(=O)C5CCS(=O)(=O)CC5)C4)cc23)cc1C(F)(F)F [Example A31, {(S)-3-[4-(6-Amino-5-trifluoromethyl-pyridin-3-yl)-quinolin-6-yloxy]-pyrrolidin-1-yl}-(1,1-dioxo-hexahydro-1lambda*6*-thiopyran-4-yl)-methanone] | 20 | 30
6 | COc1ncc(-c2ccnc3ccc(O[C@H]4CCN(C(=O)c5ccc(=O)n(C)c5)C4)cc23)cc1C [Example A32, 5-{(S)-3-[4-(6-Methoxy-5-methyl-pyridin-3-yl)-quinolin-6-yloxy]-pyrrolidine-1-carbonyl}-1-methyl-1H-pyridin-2-one] | 21 | 851
7 | Cc1cc(-c2ccnc3ccc(O[C@H]4CCN(C(=O)C5CCOCC5)C4)cc23)cnc1S(C)(=O)=O [Example A33, {(S)-3-[4-(6-Methanesulfonyl-5-methyl-pyridin-3-yl)-quinolin-6-yloxy]-pyrrolidin-1-yl}-(tetrahydro-pyran-4-yl)-methanone] | 25 | 3370
8 | CCC(=O)N1CC[C@H](Oc2ccc3nccc(-c4cnc(N)c(C(F)(F)F)c4)c3c2)C1 [Example A34, 1-{(S)-3-[4-(6-Amino-5-trifluoromethyl-pyridin-3-yl)-quinolin-6-yloxy]-pyrrolidin-1-yl}-propan-1-one] | 27 | 35
9 | CC(=O)N1CC[C@@H](C(=O)N2CC[C@H](Oc3ccc4nccc(-c5cnc(OC(F)F)c(C)c5)c4c3)C2)C1 [Example A35, 1-((R)-3-{(S)-3-[4-(6-Difluoromethoxy-5-methyl-pyridin-3-yl)-quinolin-6-yloxy]-pyrrolidine-1-carbonyl}-pyrrolidin-1-yl)-ethanone] | 29 | 1230
10 | Cc1cc(-c2ccnc3ccc(O[C@H]4CCN(C(=O)C(C)C)C4)cc23)cnc1S(C)(=O)=O [Example A36, 1-{(S)-3-[4-(6-Methanesulfonyl-5-methyl-pyridin-3-yl)-quinolin-6-yloxy]-pyrrolidin-1-yl}-2-methyl-propan-1-one] | 39 | 1570
11 | CS(=O)(=O)c1ncc(-c2ccnc3ccc(O[C@H]4CCN(C(=O)C5CCOCC5)C4)cc23)cc1C(F)(F)F [Example A37, {(S)-3-[4-(6-Methanesulfonyl-5-trifluoromethyl-pyridin-3-yl)-quinolin-6-yloxy]-pyrrolidin-1-yl}-(tetrahydro-pyran-4-yl)-methanone] | 43 | 745
12 | Cc1cc(-c2ccnc3ccc(O[C@H]4CCN(C(=O)C5CCS(=O)(=O)CC5)C4)cc23)cnc1OC(F)F [Example A38, {(S)-3-[4-(6-Difluoromethoxy-5-methyl-pyridin-3-yl)-quinolin-6-yloxy]-pyrrolidin-1-yl}-(1,1-dioxo-hexahydro-1lambda*6*-thiopyran-4-yl)-methanone] | 48 | 1650
13 | COc1ncc(-c2ccnc3ccc(O[C@H]4CCN(C(=O)c5cn(C)cn5)C4)cc23)cc1C [Example A39, {(S)-3-[4-(6-Methoxy-5-methyl-pyridin-3-yl)-quinolin-6-yloxy]-pyrrolidin-1-yl}-(1-methyl-1H-imidazol-4-yl)-methanone] | 71 | 189
14 | CNc1cc(-c2ccnc3ccc(O[C@H]4CCN(C(=O)C5CCOCC5)C4)cc23)cnc1S(C)(=O)=O [Example A40, {(S)-3-[4-(6-Methanesulfonyl-5-methylamino-pyridin-3-yl)-quinolin-6-yloxy]-pyrrolidin-1-yl}-(tetrahydro-pyran-4-yl)-methanone] | 118 | 2420
15 | COc1ncc(-c2ccnc3ccc(O[C@H]4CCN(C(=O)c5ccc(=O)[nH]c5)C4)c(C)c23)cc1C(F)F [Example B2, 5-{(S)-3-[4-(5-Difluoromethyl-6-methoxy-pyridin-3-yl)-5-methyl-quinolin-6-yloxy]-pyrrolidine-1-carbonyl}-1H-pyridin-2-one] | 4 | 33
16 | COc1ncc(-c2ccnc3ccc(O[C@H]4CCN(C(=O)C5CCS(=O)(=O)CC5)C4)c(C)c23)cc1C(F)F [Example B4, {(S)-3-[4-(5-Difluoromethyl-6-methoxy-pyridin-3-yl)-5-methyl-quinolin-6-yloxy]-pyrrolidin-1-yl}-(1,1-dioxo-hexahydro-1lambda*6*-thiopyran-4-yl)-methanone] | 5 | 177
17 | Cc1cc(-c2ccnc3ccc(O[C@H]4CCN(C(=O)C5CCOCC5)C4)c(C)c23)cnc1S(C)(=O)=O [Example B5, {(S)-3-[4-(6-Methanesulfonyl-5-methyl-pyridin-3-yl)-5-methyl-quinolin-6-yloxy]-pyrrolidin-1-yl}-(tetrahydro-pyran-4-yl)-methanone] | 11 | 664
18 | COc1ncc(-c2ccnc3ccc(O[C@H]4CCN(C(=O)C5CCS(=O)(=O)CC5)C4)c(C)c23)cc1CF [Example B6, (1,1-Dioxo-hexahydro-1lambda*6*-thiopyran-4-yl)-{(S)-3-[4-(5-fluoromethyl-6-methoxy-pyridin-3-yl)-5-methyl-quinolin-6-yloxy]-pyrrolidin-1-yl}-methanone] | 12 | 294
19 | CC(=O)N1CC[C@@H](C(=O)N2CC[C@H](Oc3ccc4nccc(-c5cnc(OC(F)F)c(C)c5)c4c3C)C2)C1 [Example B7, 1-((R)-3-{(S)-3-[4-(6-Difluoromethoxy-5-methyl-pyridin-3-yl)-5-methyl-quinolin-6-yloxy]-pyrrolidine-1-carbonyl}-pyrrolidin-1-yl)-ethanone] | 20 | 869
